Laboratory results from article PMC12344774, “Ferrocenyl Quinoline-Benzimidazole Hybrids: A Multistage Strategy to Combat Drug-Resistant Malaria” (Inorganic Chemistry, 2025).

Assays:
[1] = Hydroxyl radical (ROS) generation with H2O2, DCFH2 fluorescent probe; settings: 200 μM in 1:4 DMSO/PBS, H2O2 and H2DCF added, 30 min
Excerpt: Fluorogenic redox-sensitive probes are often employed to measure the presence of ROS, due to their low cost, ease of use, and nontoxicity, allowing for spectrofluorimetric measurements. 2′,7′-Dichlorodihydrofluorescein diacetate (DCFH2-DA) is the most widely used fluorogenic probe. Cleavage of the acetate groups, through alkaline hydrolysis, generates 2′,7′-dichlorodihydrofluorescein (DCFH2), which in the presence of oxidants, yields the highly fluorescent 2′,7′-dichlorofluorescein (DCF, λem = 523 nm). The DCFH2 probe reacts with an array of oxidants, making it an ideal indicator of general oxidative stress. […] The presence of these radicals was confirmed by monitoring the fluorescence over time (Figure ). […].
Stock solutions of DCFH2-DA were prepared to 1 mM in 100% DMSO and stored at −20 °C in the dark until use. The deacetylation of DCFH2-DA involved adding 2 μL of a 0.5 M NaOH solution to 200 μL of the 1 mM DCFH2-DA stock solution. The solution was mixed for 30 min, in the dark, at room temperature and then quenched with 800 μL of PBS buffer to obtain a 200 μM H2DCF 1:4 DMSO/PBS solution mixture.
[…]. The fluorometer was blanked using a 1:4 DMSO/PBS solution mixture. To identify hydroxyl radical production, 2 μL of a 0.5% H2O2 solution was added to 900 μL of the 200 μM complex solution in a cuvette at 25 °C. 100 μL of the prepared H2DCF solution (200 μM) was quickly added, and the readings recorded at 530 nm (emission wavelength), at 2 min intervals, over 30 min.

K1 = settings: MDR K1; footnote e: Results from ref (number not given); read-out: PfK1 IC50 ± SEM; cited from earlier work
[2] = Cyclic voltammetry of the ferrocene/ferrocenium couple; type: physicochemical
Method: It has been proposed that the oxidation of ferrocene (Fe(C5H5)2) to the ferrocenium cation (Fe(C5H5)2 ^+) is a reversible one-electron transfer process. […] This prompted the investigation into the electrochemical properties of the Fe(C5H5)2/Fe(C5H5)2 ^+ couple in complexes C1–C5, using cyclic voltammetry. FQ was used as the reference, as it is considered the benchmark for all newly developed ferrocenyl-based antiplasmodials.
Nuclear magnetic resonance (NMR) spectra were recorded on a Bruker XR600 MHz spectrometer (^1H at 599.95 MHz and ^13C{^1H} at 151.0 MHz), a Bruker […] (^1H at 400.22 MHz and ^13C{^1H} at 100.65 MHz), or a Varian Mercury 300 (^1H at 300.08 MHz) spectrometer. These were equipped with a Bruker Biospin GmbH casing and sample injector at 30 °C and tetramethylsilane (TMS) was used as the internal standard. Coupling constants are reported in Hz and chemical shifts are reported in ppm relative to residual solvent signals. Infrared (IR) spectroscopy was performed on a PerkinElmer Spectrum 100 FT-IR spectrometer, using attenuated total reflectance (ATR), with vibrations measured in units of cm^–1. Cyclic voltammetric measurements were carried out at ambient temperature under an inert argon atmosphere using a three-electrode system on a BASi Epsilon Eclipse potentiostat/galvanostat electrochemical workstation. The C-3 cell stand, equipped with a glassy carbon working electrode, Ag/AgCl (saturated NaCl) reference electrode, and a Pt wire auxiliary electrode were used to carry out electrochemical measurements. All experiments were carried out in anhydrous dichloromethane containing 0.10 M tetra-n-butylammonium perchlorate (TBAP) as the supporting electrolyte.

NF54 = settings: drug-sensitive NF54; footnote e: Results from ref (number not given); read-out: PfNF54 IC50 ± SEM; cited from earlier work
[3] = scan rate 100 mV/s, CH2Cl2, 0.1 M TBAP
[4] = vs Ag/AgCl, scan rate 100 mV/s, CH2Cl2, 0.1 M TBAP

CN(C)Cc1ccc[c-]1CNc1ccnc2cc(Cl)ccc12.[Fe+2].c1cc[cH-]c1 (stereo not drawn) [FQ, ferroquine, reference compound]
Hydroxyl radical generation (fluorescence intensity over time) [1]: generate hydroxyl radicals | IC50 (K1): 23.9 ± 0.2 nM | Reversibility of the ferrocene/ferrocenium couple ([2]; DCM/0.1 M TBAP system): chemically and electrochemically reversible | Ipc/Ipa [2, 3]: 1.00 | ΔE [2, 3]: 0.125 V | Anodic peak potential Epa [2, 4]: 0.613 V | Cathodic peak potential Epc [2, 4]: 0.488 V | Half-wave potential E1/2 [2, 4]: 0.550 V | IC50 (NF54): 20 ± 3 nM
